Patent US7652064B2, “AMPA receptor potentiators” (Eli Lilly and Company, priority 2005, dated 2010)

Biological target: T1, human iGluR4 (Homo sapiens, UniProt P48058)
T1 construct: expressed in transfected cells; host or cells: HEK293
Experiment: Whole-cell voltage clamp electrophysiology of AMPA receptor potentiation in HEK293 cells stably expressing human iGluR4
Format: cell-based
Conditions: voltage-clamped at −60 mV, 1 mM glutamate, fit to the Hill equation, read-out: activity (EC50, potentiation of current evoked by 1 mM glutamate)
Excerpt: HEK293 cells stably expressing human iGluR4 (obtained as described in European Patent Application Publication No. EP-A1-0583917) are used in the electrophysiological characterization of AMPA receptor potentiators. The extracellular recording solution contains (in mM): 140 NaCl, 5 KCl, 10 HEPES, 1 MgCl2, 2 CaCl2, 10 glucose, pH=7.4 with NaOH, 295 mOsm kg-1. The intracellular recording solution contains (in mM): 140 CsCl, 1 MgCl2, 10 HEPES, (N-[2-hydroxyethyl]piperazine-N1-[2-ethanesulfonic acid]) 10 EGTA (ethylene-bis(oxyethylene-nitrilo)tetraacetic acid), pH=7.2 with CsOH, 295 mOsm kg-1. With these solutions, recording pipettes have a resistance of 2-3 MΩ. […] Responses to 1 mM glutamate are then determined in the presence of test compound. […]
In order to determine the potency of test compounds, the concentration of the test compound, both in the bathing solution and co-applied with glutamate, is increased in half log units until the maximum effect was seen. […] Reversibility of test compound activity is determined by assessing control glutamate 1 mM responses. Once the control responses to the glutamate challenge are re-established, the potentiation of these responses by 100 μM cyclothiazide is determined by its inclusion in both the bathing solution and the glutamate-containing solution. In this manner, the efficacy of the test compound relative to that of cyclothiazide can be determined. […]

T1 sequence (P48058 21-902): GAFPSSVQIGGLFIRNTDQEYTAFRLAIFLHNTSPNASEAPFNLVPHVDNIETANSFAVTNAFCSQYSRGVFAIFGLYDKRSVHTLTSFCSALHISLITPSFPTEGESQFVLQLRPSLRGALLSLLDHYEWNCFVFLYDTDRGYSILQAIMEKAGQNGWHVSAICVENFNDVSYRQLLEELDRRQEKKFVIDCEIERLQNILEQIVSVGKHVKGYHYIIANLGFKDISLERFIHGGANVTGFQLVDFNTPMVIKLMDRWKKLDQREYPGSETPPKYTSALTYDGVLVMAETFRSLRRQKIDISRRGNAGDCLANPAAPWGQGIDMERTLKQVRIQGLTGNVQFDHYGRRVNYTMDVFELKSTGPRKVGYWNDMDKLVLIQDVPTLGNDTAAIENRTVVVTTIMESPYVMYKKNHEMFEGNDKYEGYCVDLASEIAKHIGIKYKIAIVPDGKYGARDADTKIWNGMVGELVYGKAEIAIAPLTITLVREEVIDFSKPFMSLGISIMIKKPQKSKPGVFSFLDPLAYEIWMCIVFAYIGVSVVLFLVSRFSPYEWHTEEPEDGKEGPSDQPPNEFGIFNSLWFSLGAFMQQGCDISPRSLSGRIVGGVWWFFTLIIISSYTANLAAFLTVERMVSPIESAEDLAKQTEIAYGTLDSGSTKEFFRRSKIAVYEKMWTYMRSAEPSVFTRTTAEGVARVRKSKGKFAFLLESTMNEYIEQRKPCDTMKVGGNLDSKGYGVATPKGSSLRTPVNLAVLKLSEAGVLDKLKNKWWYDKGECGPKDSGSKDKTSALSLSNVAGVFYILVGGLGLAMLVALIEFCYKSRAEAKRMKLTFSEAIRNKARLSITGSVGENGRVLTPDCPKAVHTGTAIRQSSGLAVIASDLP

`CCOc1cc(C(=O)O)ccc1-c1ccc(-c2sccc2NS(=O)(=O)C(C)C)cc1` [Example 1, 2-Ethoxy-4′-[3-(propane-2-sulfonylamino)-thiophen-2-yl]-biphenyl-4-carboxylic acid] showed an EC50 of 145 nM.
